A short description of data set [1]: Solubility and hydrolysis in water. It is filed as physicochemical. The settings on record: hydrochlorides.
Data set [2] is described as follows: Anticonvulsive activity and toxicity, general statements. It is filed as in vivo. The settings on record: compared with the conventional anticonvulsants.
In another data set the test system is conditioned reflexes. The data set is described as follows: Influence on rate of development of conditioned reflexes (learning). Conditions: for ET50 (medium time required for learning): confidence limits in parentheses, P=0.05. It is filed as in vivo, white mice. The source says: The influence of Metindione and Phenobarbital on learning has been studied on white mice.
(confidence limits are put in parentheses; P=0.05).

The next data set concerns electroshock. Nature of the data set: Thirty-day electroshock tests (habituation). The format is in vivo. The settings on record: white mice.
Data set [3] in a line: Extended every day administration / chronic toxicity. It is filed as in vivo.
The nature of data set [4]: Acute toxicity (LD50, Table 1). Also on record: species or system white rats and white mice. Conditions: in vivo, ip; confidence limits in parentheses, P = 0.05; second ED50 column of Table 1.
The subject of data set [5] is seizures induced by an electroshock. Nature of the data set: Anticonvulsive effect in electroshock (intraperitoneal). The format is in vivo, white rats and white mice. As to the method: Anticonvulsive effect of Metindione in electroshock was studied on white rats and white mice on a comparison basis with the well known drug phenobarbital. Both preparations were administered by intraperitoneal injections. The results are summarized in Tabl. 1 (confidence limits are indicated in parentheses; P = 0.05).

Data on three compounds can be found in patent publication US3980707A, “Methylamino derivative of 2-ethylindandione-1,3 and the hydrochloride thereof” (priority 1973, dated 1976).

Counter-ions that a name gives are not always drawn.

What is called LD50 is the dose expected to kill half of the subjects tested. One may read the ED50 as the dose at which the effect has come halfway, by size or by number of responders.

Consider `CCC1(Nc2ccccc2)C(=O)c2ccccc2C1=O` [2-aniline-2-ethylindandione-1,3 hydrochloride], for which the hydrolysis in water entry in data set [1] is on record as “readily hydrolyzed in water”.

With `CCC1(NC)C(=O)c2ccccc2C1=O` [2-methylamino-2-ethylindandione-1,3 hydrochloride], the anticonvulsant index entry in data set [2] is listed as “high anticonvulsant index”.

As for `CCC1(NC)C(=O)c2ccccc2C1=O` [Metindione, 2-methylamino-2-ethylindandione-1,3 hydrochloride], the “ET50 (medium time required for learning)” value with conditioned reflexes (dose 1/2 of ED50 of anticonv. action) is 2.4(2.1+2.6) day; in the data set on conditioned reflexes (dose 1 x ED50 of anticonv. action) it was 2.5(2.1+2.8) day; in the data set on conditioned reflexes (dose 2 x ED50 of anticonv. action), 2.0(1.7+2.3) day; in the data set with conditioned reflexes (dose 4 x ED50 of anticonv. action), 2.8(2.4+3.4) day. Besides, the “influence on rate of developing conditioned reflexes” value in the data set with conditioned reflexes (mouse, in vivo) is “did not influence the rate of developing conditioned reflexes”. In addition, in the data set with electroshock, the “necessity to increase initial dose / habit forming reaction” value was “no necessity to increase the initial dose”. The toxic effect result in data set [3] (extended every day administration, doses 15 times higher than the therapeutical average) was “no toxic effect”. In addition, in data set [3] (in vivo), the “acute and chronic toxicity” value was “low acute and a low chronic toxicity”. Also, the “morphological internal organic changes” value in data set [3] (in vivo) is “does not cause any morphological internal organic changes”. In addition, in data set [3] (young animals), the “influence on normal development and growth of young animals” value was “no adverse influence on normal development and growth of young animals”. Also, the LD50 in data set [4] was found to be 415 mg/kg. In data set [5] (Rattus norvegicus, ip, electroshock, confidence limits in parentheses, P = 0.05), the ED50 stood at 3.6 mg/kg. Also, in data set [5] (electroshock, i.p., confidence limits in parentheses, P = 0.05), the “Protective Index (in ratio of LD50 /ED50)” value is recorded as 115 (89+149). The “protective index higher than that of phenobarbital” value in data set [5] (in vivo) came out at 14 times. Besides, the “anticonvulsive effect stronger than that of phenobarbital” value in data set [5] (seizures induced by an electroshock, relative to phenobarbital) is listed as roughly 4 times.
